Here are results for five compounds from patent US8067424B2, “Selective inhibitors for cyclin-dependent kinases” (Emory University, priority 2007, dated 2011).

Holding throughout (format): biochemical
One test deals with ERK1 (Homo sapiens, UniProt P27361). Put plainly: Kinase screen: ERK1 assay. The protocol: (§1) Generally, the same procedure was used for all assays. Since the total assay volume was 25.5 microliters, 0.5 microliters of inhibitors at 51× assay concentration were added to the plates before any other addition.
(§2) The basic procedure was to add 0.5 microliters inhibitor/control in DMSO to plate. Fifteen microliters of enzyme/substrate/buffer mix were added and incubated for 5 min. Ten microliters MgATP at the relevant concentration were added and incubated for 30 min. The assay was stopped by adding 5 microliters of 3% orthophosphoric acid. The assay was transferred to a p81 filter plate and read in a scintillation counter of 30 sec/well. Note that this assay procedure was not followed for MKK1, which instead involved a two-step assay, and PKC alpha, which required the addition of lipid vesicles.
ERK1 assay: 5-20 mU of ERK1 (diluted in 50 mM Tris (pH 7.5), 0.1 mM EGTA, 1 mg/ml BSA, 0.1%, b-Mercaptoethanol) was assayed against MBP in a final volume of 25.5 μl containing 50 mM Tris (pH 7.5), 0.1 mM EGTA, 0.1%, b-Mercaptoethanol, 0.33 mg/ml MBP, 10 mM magnesium acetate and 0.005 mM [33P-g-ATP] (500-1000 cpm/pmole) and incubated for 30 mins at room temperature. Assays were stopped by addition of 5 μl of 0.5M (3%) orthophosphoric acid. Assays were harvested onto P81 Unifilter plates using a wash buffer of 50 mM orthophosphoric acid.

In another test the target is JNK1 (Homo sapiens, UniProt P45983). Put plainly: Kinase screen: JNK1a1/SAPK1c assay. The protocol:
as §1, §2
JNK1a1/SAPK1c assay: JNK1a1/SAPK1c (5-20 mU diluted in 50 mM Tris pH 7.5, 0.1 mM EGTA, 1 mg/ml BSA, 0.1% b-mercaptoethanol) was assayed against ATF2 (activating transcription factor in a final volume of 25.5 μl in 50 mM Tris pH 7.5, 0.1 mM EGTA, 0.1% b-Mercaptoethanol, ATF2 (3 μM), 10 mM magnesium acetate and 0.02 mM [33P-g-ATP] (500-1000 cpm/pmole) and incubated for 30 min at room temperature. Assays were stopped by addition of 5 μl of 0.5 M (3%) orthophosphoric acid and then harvested onto P81 Unifilter plates with a wash buffer of 50 mM orthophosphoric acid.

A further test relates to PHK. Put plainly: Kinase screen: PBK assay (phosphorylase b peptide). As to conditions: for mean activity remaining (as a percentage of the original activity), PHK: 10 micromolar compound. The procedure: as §1, §2
PBK assay: PBK (5-20 mU diluted in 50 mM Na-b-glycerophosphate pH 7.0, 0.1% b-mercaptoethanol) was assayed against phosphorylase b peptide ([…]) (SEQ ID NO: 14) in a final volume of 25.5 μl containing 50 mM Tris pH 8.6, 50 mM Na-b-glycerophosphate, 0.04 mM CaCl2, phosphorylase b peptide (0.196 mM), 10 mM magnesium acetate, 0.02 mM [33P-g-ATP] (500-1000 cpm/pmole) then incubated for 15 min at room temperature. Assays were stopped by addition of 5 μl of 0.5 M (3%) orthophosphoric acid and then harvested onto P81 Unifilter plates with a wash buffer of 50 mM orthophosphoric acid.

A further test has as its target PLK1 (Homo sapiens, UniProt P53350). Put plainly: Kinase screen: PLK1 assay. The procedure: as §1, §2
(50-1000 cpm/pmole) and incubated for 30 min at room temperature. Assays were stopped by addition of 5 μl of 0.5 M (3%) orthophosphoric acid and then harvested onto P81 Unifilter plates with a wash buffer of 50 mM orthophosphoric acid.

A further test concerns the target MELK (Homo sapiens, UniProt Q14680). Put plainly: Kinase screen: MELK assay. The procedure: as §1, §2
MELK assay: MELK (5-20 mU diluted in 50 mM Tris pH 7.5, 0.1 mM EGTA, 0.1% b-mercaptoethanol, 1 mg/ml BSA) was assayed against a substrate peptide ([…]) (SEQ ID NO: 33) in a final volume of 25.5 μl containing 50 mM Tris pH 7.5, 0.05% b-mercaptoethanol, 200 μM substrate peptide, 10 mM magnesium acetate and 0.05 mM [33P-g-ATP] (50-1000 cpm/pmole) and incubated for 30 min at room temperature. Assays were stopped by addition of 5 μl of 0.5 M (3%) orthophosphoric acid and then harvested onto P81 Unifilter plates with a wash buffer of 50 mM orthophosphoric acid.

The next test relates to CK2. Nature of the test: Kinase screen: CK2 assay. As to conditions: for mean activity remaining (as a percentage of the original activity), CK 2: 10 micromolar compound. The protocol:
as §2, with “Generally, the same procedure was used for all assays. Since the total assay volume was 25.5 microliters, 0.5 microliters of inhibitors at 51× assay concentration were added to the plates before any other addition. […] The basic” for “The basic”, “30 min. […] The assay” for “30 min. The assay was stopped by adding 5 microliters of 3% orthophosphoric acid. The assay”, “lipid vesicles. CK2 assay: […]” for “lipid vesicles.”

In another test the target is PAK5 (Homo sapiens, UniProt Q9P286). Nature of the test: Kinase screen: PAK5 (PAK7) assay. The procedure: as §1, §2
PAK5 (PAK7) assay: PAK5 (PAK7)(5-20 mU diluted in 50 mM Tris pH 7.5, 0.1 mM EGTA, 0.1% b-mercaptoethanol, 1 mg/ml BSA) was assayed against a substrate peptide ([…]) (SEQ ID NO: 30) in a final volume of 25.5 μl containing 50 mM Tris pH 7.5, 0.05% b-mercaptoethanol, 300 μM substrate peptide, 10 mM magnesium acetate and 0.02 mM [33P-g-ATP] (50-1000 cpm/pmole) and incubated for 30 min at room temperature. Assays were stopped by addition of 5 μl of 0.5 M (3%) orthophosphoric acid and then harvested onto P81 Unifilter plates with a wash buffer of 50 mM orthophosphoric acid.

The mark [1] stands for this setting: 10 micromolar compound, read-out: mean activity remaining (as a percentage of the original activity), ERK1.
Where [2] appears, read: 10 micromolar compound, read-out: mean activity remaining (as a percentage of the original activity), JNK1.
Setting [3] is: 10 micromolar compound, read-out: mean activity remaining (as a percentage of the original activity), PLK 1.
[4] abbreviates: 10 micromolar compound, read-out: mean activity remaining (as a percentage of the original activity), MELK.
Where [5] appears, read: 10 micromolar compound, read-out: mean activity remaining (as a percentage of the original activity), PAK5.

Molecules are shown by their SMILES. Where two headings read alike, the source gives them in different places.

Chain of PLK1 (P53350 whole entry, species assumed): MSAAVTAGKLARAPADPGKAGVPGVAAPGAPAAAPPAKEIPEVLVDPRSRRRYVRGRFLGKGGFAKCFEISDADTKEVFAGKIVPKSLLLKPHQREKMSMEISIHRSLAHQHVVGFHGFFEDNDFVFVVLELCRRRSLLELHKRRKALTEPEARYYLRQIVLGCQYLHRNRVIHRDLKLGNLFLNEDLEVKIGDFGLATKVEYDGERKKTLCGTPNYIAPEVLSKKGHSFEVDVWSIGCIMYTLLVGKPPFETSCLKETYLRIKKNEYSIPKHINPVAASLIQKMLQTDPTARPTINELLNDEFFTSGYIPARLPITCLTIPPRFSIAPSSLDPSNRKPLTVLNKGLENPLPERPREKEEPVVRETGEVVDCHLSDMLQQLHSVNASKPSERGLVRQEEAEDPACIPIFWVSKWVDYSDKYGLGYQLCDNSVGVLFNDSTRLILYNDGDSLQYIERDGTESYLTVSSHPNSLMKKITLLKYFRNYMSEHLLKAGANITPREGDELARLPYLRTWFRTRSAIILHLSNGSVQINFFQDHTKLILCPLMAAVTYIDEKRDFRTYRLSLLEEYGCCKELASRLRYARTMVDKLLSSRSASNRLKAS
Chain of PAK5 (Q9P286 whole entry): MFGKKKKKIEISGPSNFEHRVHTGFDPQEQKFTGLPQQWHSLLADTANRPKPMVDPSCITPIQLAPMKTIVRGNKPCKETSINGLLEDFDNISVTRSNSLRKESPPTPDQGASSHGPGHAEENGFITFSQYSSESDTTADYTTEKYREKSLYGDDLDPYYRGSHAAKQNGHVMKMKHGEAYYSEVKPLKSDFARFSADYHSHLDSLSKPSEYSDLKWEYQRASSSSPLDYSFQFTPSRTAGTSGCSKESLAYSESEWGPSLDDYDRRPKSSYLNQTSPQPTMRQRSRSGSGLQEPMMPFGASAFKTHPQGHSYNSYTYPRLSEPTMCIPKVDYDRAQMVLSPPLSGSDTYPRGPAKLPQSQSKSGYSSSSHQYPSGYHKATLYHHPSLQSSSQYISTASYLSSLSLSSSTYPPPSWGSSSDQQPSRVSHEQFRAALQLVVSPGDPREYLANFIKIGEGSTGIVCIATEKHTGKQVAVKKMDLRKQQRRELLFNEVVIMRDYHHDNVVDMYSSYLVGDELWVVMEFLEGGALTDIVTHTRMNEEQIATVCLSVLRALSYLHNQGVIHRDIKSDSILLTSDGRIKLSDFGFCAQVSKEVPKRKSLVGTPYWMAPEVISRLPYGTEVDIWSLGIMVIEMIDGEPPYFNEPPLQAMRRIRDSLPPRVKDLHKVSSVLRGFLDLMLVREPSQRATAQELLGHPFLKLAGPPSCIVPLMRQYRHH
Chain of ERK1 (P27361 whole entry, species assumed): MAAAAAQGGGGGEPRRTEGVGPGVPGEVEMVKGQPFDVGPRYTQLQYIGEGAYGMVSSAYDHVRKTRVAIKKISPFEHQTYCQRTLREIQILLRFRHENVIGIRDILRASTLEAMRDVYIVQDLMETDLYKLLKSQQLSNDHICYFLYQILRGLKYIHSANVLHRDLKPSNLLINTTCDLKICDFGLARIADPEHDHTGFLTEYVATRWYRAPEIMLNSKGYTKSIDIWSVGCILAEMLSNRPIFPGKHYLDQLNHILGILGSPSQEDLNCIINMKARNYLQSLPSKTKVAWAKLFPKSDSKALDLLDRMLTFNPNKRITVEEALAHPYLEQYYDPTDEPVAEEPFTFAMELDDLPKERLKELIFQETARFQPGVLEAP
Chain of JNK1 (P45983 1-384 isoform P45983-2, species assumed): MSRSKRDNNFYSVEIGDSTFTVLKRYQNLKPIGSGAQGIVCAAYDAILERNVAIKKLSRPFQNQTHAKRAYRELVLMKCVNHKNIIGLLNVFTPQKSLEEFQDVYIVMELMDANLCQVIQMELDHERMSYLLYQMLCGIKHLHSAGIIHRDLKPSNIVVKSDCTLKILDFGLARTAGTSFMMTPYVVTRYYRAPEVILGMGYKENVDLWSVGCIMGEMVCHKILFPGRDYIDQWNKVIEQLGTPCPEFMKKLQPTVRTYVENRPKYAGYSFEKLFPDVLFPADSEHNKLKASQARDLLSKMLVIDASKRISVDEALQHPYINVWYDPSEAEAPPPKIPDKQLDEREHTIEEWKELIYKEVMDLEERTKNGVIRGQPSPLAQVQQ
Chain of MELK (Q14680 whole entry, species assumed): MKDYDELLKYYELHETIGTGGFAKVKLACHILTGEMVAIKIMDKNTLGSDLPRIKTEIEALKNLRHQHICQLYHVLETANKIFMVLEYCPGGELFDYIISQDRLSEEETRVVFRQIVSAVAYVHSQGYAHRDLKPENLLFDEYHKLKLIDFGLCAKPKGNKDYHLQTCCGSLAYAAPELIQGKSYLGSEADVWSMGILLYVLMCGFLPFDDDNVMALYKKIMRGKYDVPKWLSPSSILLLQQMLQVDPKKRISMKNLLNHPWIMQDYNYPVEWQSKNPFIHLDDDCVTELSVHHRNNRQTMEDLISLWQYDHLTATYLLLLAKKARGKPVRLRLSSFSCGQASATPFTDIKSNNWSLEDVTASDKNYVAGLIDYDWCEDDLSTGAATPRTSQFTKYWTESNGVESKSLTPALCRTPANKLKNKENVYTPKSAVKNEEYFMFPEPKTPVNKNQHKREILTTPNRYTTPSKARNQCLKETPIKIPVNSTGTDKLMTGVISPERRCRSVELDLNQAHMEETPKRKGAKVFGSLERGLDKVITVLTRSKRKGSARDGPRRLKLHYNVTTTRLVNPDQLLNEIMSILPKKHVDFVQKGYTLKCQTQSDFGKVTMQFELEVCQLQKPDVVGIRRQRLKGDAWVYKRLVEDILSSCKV

By remaining activity is commonly meant the signal under treatment as a percentage of the control signal. In the case of `CC(C)c1cnn2c(NCc3ccccc3)cc(NCCCCCCCN)nc12` [BS-181], the remaining activity at 10 µM on ERK1 (ERK1, 10 μM, read-out: Mean Remaining Enzyme Activity (%)) came out at 108%; at JNK1 (JNK1, 10 μM, read-out: Mean Remaining Enzyme Activity (%)), 100%; on PLK1 (PLK1, 10 μM, read-out: Mean Remaining Enzyme Activity (%)), 100%; on MELK (MELK, 10 μM, read-out: Mean Remaining Enzyme Activity (%)), 63%; on PAK5 (PAK5, 10 μM, read-out: Mean Remaining Enzyme Activity (%)), 80%. Besides, the “Mean Remaining Enzyme Activity (%)” value in the test on PHK (PHK, 10 μM) is 49%; with CK2 (CK2, 10 μM), 108%.

Turning to `C=C[C@H](CO)Nc1cc(NCc2ccccc2)n2ncc(C(C)C)c2n1` [ICEC0065], the remaining activity at 10 µM stood at 84% on ERK1 (setting [1]); 95% on JNK1 (setting [2]); 56% at PLK1 (setting [3]); 90% on MELK (setting [4]); 81% on PAK5 (setting [5]). Besides, the “mean activity remaining (as a percentage of the original activity), PHK” value in the test with PHK was found to be 68%. In the test on CK2, the “mean activity remaining (as a percentage of the original activity), CK 2” value is given as 94%.

As to `CC(C)c1cnn2c(NCc3ccccc3)cc(N[C@@H](CO)[C@H](O)CO)nc12` [ICEC0318, (3S)-3-(7-(Benzylamino)-3-isopropylpyrazolo[1,5-a]pyrimidin-5-ylamino)butane-1,2,4-triol], the remaining activity at 10 µM was 42% at ERK1 (setting [1]); 93% at JNK1 (setting [2]); 68% on PLK1 (setting [3]); 88% at MELK (setting [4]); 65% on PAK5 (setting [5]). Besides, the “mean activity remaining (as a percentage of the original activity), PHK” value in the test with PHK stood at 62%. Besides, in the test with CK2, the “mean activity remaining (as a percentage of the original activity), CK 2” value was found to be 89%.

In the case of `CC(C)c1cnn2c(NCc3ccccc3F)cc(NCCCCCN)nc12` [ICEC-0232], on ERK1 (10 micromolar compound), the “mean activity remaining (as a percentage of the original activity), ERK1” value came out at 90%. In addition, the “mean activity remaining (as a percentage of the original activity), JNK1” value at JNK1 (10 micromolar compound) stood at 87%. The “mean activity remaining (as a percentage of the original activity), PHK” value in the test with PHK was determined as 10%. Further, the “mean activity remaining (as a percentage of the original activity), PLK 1” value at PLK1 (10 micromolar compound) was 55%. Further, the “mean activity remaining (as a percentage of the original activity), MELK” value on MELK (10 micromolar compound) was determined as 62%. In addition, in the test with CK2, the “mean activity remaining (as a percentage of the original activity), CK 2” value is listed as 92%. Further, on PAK5 (10 micromolar compound), the “mean activity remaining (as a percentage of the original activity), PAK5” value is on record as 81%.

On to `CC[C@H](CO)Nc1cc(NCc2ccccc2)n2ncc(C(C)C)c2n1` [ICEC0067], for which the remaining activity at 10 µM on ERK1 (setting [1]) is 69%; on JNK1 (setting [2]) it was 98%; on PLK1 (setting [3]), 64%; at MELK (setting [4]), 75%; at PAK5 (setting [5]) it was 89%. The “mean activity remaining (as a percentage of the original activity), PHK” value in the test on PHK stood at 68%. The “mean activity remaining (as a percentage of the original activity), CK 2” value in the test on CK2 is recorded as 87%.
